These results are taken from BindingDB's records for doi:10.1021/jm00007a020 (Eastern Michigan University, 1995).

Square brackets hold non-standard residues; d marks the D form. Peptide text beside a SMILES is read from it. Ala(4-thiazolyl) = N[C@@H](Cc1cscn1)C(=O)O; 2Pal = N[C@@H](Cc1ccccn1)C(=O)O; 3Pal = N[C@@H](Cc1cccnc1)C(=O)O; 2Thi = N[C@@H](Cc1cccs1)C(=O)O

The experiment can be described thus: Inhibition of [3H]- DPDPE binding to delta opioid receptor of guinea pig brain.

A word on the Ki: it is the dissociation constant of the complex between target and ligand, obtained from inhibition or displacement. For `CC(C)[C@H](NC(=O)[C@H](CC(=O)O)NC(=O)[C@H](Cc1cccc(F)c1)NC(=O)[C@H](C)NC(=O)[C@@H](N)Cc1ccc(O)cc1)C(=O)N[C@H](C(=O)NCC(N)=O)C(C)C` [(S)-3-[(S)-2-{(S)-2-[(S)-2-Amino-3-(4-hydroxy-phenyl)-propionylamino]-propionylamino}-3-(3-fluoro-phenyl)-propionylamino]-N-{(S)-1-[(S)-1-(carbamoylmethyl-carbamoyl)-2-methyl-propylcarbamoyl]-2-methyl-propyl}-succinamic acid], the inhibition constant Ki is 73.6 nM. As for `Cc1c(C)c(C)c(C[C@H](NC(=O)[C@H](C)NC(=O)[C@@H](N)Cc2ccc(O)cc2)C(=O)N[C@@H](CC(=O)O)C(=O)N[C@H](C(=O)N[C@H](C(=O)NCC(N)=O)C(C)C)C(C)C)c(C)c1C` [(S)-3-((S)-2-{(S)-2-[(S)-2-Amino-3-(4-hydroxy-phenyl)-propionylamino]-propionylamino}-3-pentamethylphenyl-propionylamino)-N-{(S)-1-[(S)-1-(carbamoylmethyl-carbamoyl)-2-methyl-propylcarbamoyl]-2-methyl-propyl}-succinamic acid], the figure is 10000 nM. As for “H-YAHDVVG-NH2 [(S)-3-[(S)-2-{(S)-2-[(S)-2-Amino-3-(4-hydroxy-phenyl)-propionylamino]-propionylamino}-3-(3H-imidazol-4-yl)-propionylamino]-N-{(S)-1-[(S)-1-(carbamoylmethyl-carbamoyl)-2-methyl-propylcarbamoyl]-2-methyl-propyl}-succinamic acid]”, the figure is 317 nM. `CC(C)[C@H](NC(=O)[C@H](CC(=O)O)NC(=O)[C@H](Cc1ccccn1)NC(=O)[C@H](C)NC(=O)[C@@H](N)Cc1ccc(O)cc1)C(=O)N[C@H](C(=O)NCC(N)=O)C(C)C` [(S)-3-((S)-2-{(S)-2-[(S)-2-Amino-3-(4-hydroxy-phenyl)-propionylamino]-propionylamino}-3-pyridin-2-yl-propionylamino)-N-{(S)-1-[(S)-1-(carbamoylmethyl-carbamoyl)-2-methyl-propylcarbamoyl]-2-methyl-propyl}-succinamic acid] (H-YA[2Pal]DVVG-NH2) had a Ki of 62 nM. In turn, `CC(C)[C@H](NC(=O)[C@H](CC(=O)O)NC(=O)[C@H](Cc1cscn1)NC(=O)[C@H](C)NC(=O)[C@@H](N)Cc1ccc(O)cc1)C(=O)N[C@H](C(=O)NCC(N)=O)C(C)C` [(S)-3-((S)-2-{(S)-2-[(S)-2-Amino-3-(4-hydroxy-phenyl)-propionylamino]-propionylamino}-3-thiazol-4-yl-propionylamino)-N-{(S)-1-[(S)-1-(carbamoylmethyl-carbamoyl)-2-methyl-propylcarbamoyl]-2-methyl-propyl}-succinamic acid] (H-YA[Ala(4-thiazolyl)]DVVG-NH2) gave a Ki of 40 nM. For `CC(C)[C@H](NC(=O)[C@H](CC(=O)O)NC(=O)[C@H](Cc1ccc(F)cc1)NC(=O)[C@H](C)NC(=O)[C@@H](N)Cc1ccc(O)cc1)C(=O)N[C@H](C(=O)NCC(N)=O)C(C)C` [(S)-3-[(S)-2-{(S)-2-[(S)-2-Amino-3-(4-hydroxy-phenyl)-propionylamino]-propionylamino}-3-(4-fluoro-phenyl)-propionylamino]-N-{(S)-1-[(S)-1-(carbamoylmethyl-carbamoyl)-2-methyl-propylcarbamoyl]-2-methyl-propyl}-succinamic acid], the Ki came to 703 nM. The same measure for `CC(C)[C@H](NC(=O)[C@H](CC(=O)O)NC(=O)[C@H](Cc1cccs1)NC(=O)[C@H](C)NC(=O)[C@@H](N)Cc1ccc(O)cc1)C(=O)N[C@H](C(=O)NCC(N)=O)C(C)C` [(S)-3-((S)-2-{(S)-2-[(S)-2-Amino-3-(4-hydroxy-phenyl)-propionylamino]-propionylamino}-3-thiophen-2-yl-propionylamino)-N-{(S)-1-[(S)-1-(carbamoylmethyl-carbamoyl)-2-methyl-propylcarbamoyl]-2-methyl-propyl}-succinamic acid] (H-YA[2Thi]DVVG-NH2): 1.4 nM. Compound `CC(C)[C@H](NC(=O)[C@H](CC(=O)O)NC(=O)[C@H](Cc1cccnc1)NC(=O)[C@H](C)NC(=O)[C@@H](N)Cc1ccc(O)cc1)C(=O)N[C@H](C(=O)NCC(N)=O)C(C)C` [(S)-3-((S)-2-{(S)-2-[(S)-2-Amino-3-(4-hydroxy-phenyl)-propionylamino]-propionylamino}-3-pyridin-3-yl-propionylamino)-N-{(S)-1-[(S)-1-(carbamoylmethyl-carbamoyl)-2-methyl-propylcarbamoyl]-2-methyl-propyl}-succinamic acid] (H-YA[3Pal]DVVG-NH2) had a Ki of 50 nM. The same measure for `CC(C)[C@H](NC(=O)[C@H](CC(=O)O)NC(=O)[C@H](Cc1c(F)c(F)c(F)c(F)c1F)NC(=O)[C@H](C)NC(=O)[C@@H](N)Cc1ccc(O)cc1)C(=O)N[C@H](C(=O)NCC(N)=O)C(C)C` [(S)-3-((S)-2-{(S)-2-[(S)-2-Amino-3-(4-hydroxy-phenyl)-propionylamino]-propionylamino}-3-pentafluorophenyl-propionylamino)-N-{(S)-1-[(S)-1-(carbamoylmethyl-carbamoyl)-2-methyl-propylcarbamoyl]-2-methyl-propyl}-succinamic acid]: 135 nM; for `Cc1ccc(C[C@H](NC(=O)[C@H](C)NC(=O)[C@@H](N)Cc2ccc(O)cc2)C(=O)N[C@@H](CC(=O)O)C(=O)N[C@H](C(=O)N[C@H](C(=O)NCC(N)=O)C(C)C)C(C)C)cc1` [(S)-3-((S)-2-{(S)-2-[(S)-2-Amino-3-(4-hydroxy-phenyl)-propionylamino]-propionylamino}-3-p-tolyl-propionylamino)-N-{(S)-1-[(S)-1-(carbamoylmethyl-carbamoyl)-2-methyl-propylcarbamoyl]-2-methyl-propyl}-succinamic acid]: 2650 nM.
